Assays:
[1] = molecular target: Histone-lysine N-methyltransferase KMT5B (Homo sapiens) (UniProt Q4FZB7); assay: Inhibition of SUV4-20H1 (unknown origin) at 10 uM using SAM as substrate measured up to 960 mins by AlphaScreen microplate reader assay relative to control; settings: time min <=960
[2] = molecular target: Histone-lysine N-methyltransferase SETD2 (Homo sapiens) (UniProt Q9BYW2); assay: Inhibition of SETD2 (unknown origin) at 10 uM using SAM as substrate measured up to 960 mins by AlphaScreen microplate reader assay relative to control; settings: time min <=960
[3] = molecular target: N-lysine methyltransferase SMYD2 (Homo sapiens) (UniProt Q9NRG4); assay: Inhibition of SMYD2 (unknown origin) at 10 uM using SAM as substrate measured up to 960 mins by AlphaScreen microplate reader assay relative to control; settings: time min <=960
[4] = tested on: Histone-lysine N-methyltransferase EZH2 (Homo sapiens), Q15910 [Y641F]; assay: Inhibition of EZH2 Y641F mutant (unknown origin) at 10 uM using SAM as substrate measured up to 960 mins by AlphaScreen microplate reader assay relative to control; settings: time min <=960
[5] = Antiproliferative activity against human WSUDLCL2 cells harboring EZH2 Y641F mutant assessed as inhibition of cell growth measured after 6 days by CellTiter-Glo luminescent assay; format: functional; settings: WSUDLCL2, 144 h, time 6 day
Daudi = assay: Antiproliferative activity against human Daudi cells expressing wild type EZH2 assessed as inhibition of cell growth measured after 6 days by CellTiter-Glo luminescent assay; settings: 144 h
Pfeiffer = assay: Antitumor activity against human Pfeiffer cells harboring EZH2 A677G mutant xenografted in NCG mouse assessed as tumor growth inhibition at 200 mg/kg, po BID via gavage measured after 28 days relative to control; format: functional; settings: 672 h, time 28 day, read-out: TGI
KARPAS-422 [6] = assay: Antitumor activity against human KARPAS-422 cells harboring EZH2 Y641N mutant xenografted in NCG mouse assessed as tumor growth inhibition at 100 mg/kg, po BID via gavage measured after 28 days relative to control; format: functional; settings: KARPAS-422, po, 672 h, time 28 day, read-out: TGI
KARPAS-422 [7] = assay: Antitumor activity against human KARPAS-422 cells harboring EZH2 Y641N mutant xenografted in NCG mouse assessed as tumor growth inhibition at 200 mg/kg, po BID via gavage measured after 28 days relative to control; format: functional; settings: KARPAS-422, po, 672 h, time 28 day, read-out: TGI
[8] = Cmax in mouse at 10 mg/kg, po measured up to 24 hrs by LC-MS/MS analysis; format: ADME, organism-based; design: route oral, dose 10 mg/kg, time <=24; settings: in vivo
[9] = Half life in mouse at 1 mg/kg, iv measured up to 24 hrs by LC-MS/MS analysis; format: ADME, organism-based; settings: in vivo
[10] = Apparent volume of distribution in mouse at 1 mg/kg, iv measured up to 24 hrs by LC-MS/MS analysis; format: ADME, organism-based; settings: in vivo

Histone-lysine N-methyltransferase KMT5B (Homo sapiens), sequence (Q4FZB7 whole entry, looked up): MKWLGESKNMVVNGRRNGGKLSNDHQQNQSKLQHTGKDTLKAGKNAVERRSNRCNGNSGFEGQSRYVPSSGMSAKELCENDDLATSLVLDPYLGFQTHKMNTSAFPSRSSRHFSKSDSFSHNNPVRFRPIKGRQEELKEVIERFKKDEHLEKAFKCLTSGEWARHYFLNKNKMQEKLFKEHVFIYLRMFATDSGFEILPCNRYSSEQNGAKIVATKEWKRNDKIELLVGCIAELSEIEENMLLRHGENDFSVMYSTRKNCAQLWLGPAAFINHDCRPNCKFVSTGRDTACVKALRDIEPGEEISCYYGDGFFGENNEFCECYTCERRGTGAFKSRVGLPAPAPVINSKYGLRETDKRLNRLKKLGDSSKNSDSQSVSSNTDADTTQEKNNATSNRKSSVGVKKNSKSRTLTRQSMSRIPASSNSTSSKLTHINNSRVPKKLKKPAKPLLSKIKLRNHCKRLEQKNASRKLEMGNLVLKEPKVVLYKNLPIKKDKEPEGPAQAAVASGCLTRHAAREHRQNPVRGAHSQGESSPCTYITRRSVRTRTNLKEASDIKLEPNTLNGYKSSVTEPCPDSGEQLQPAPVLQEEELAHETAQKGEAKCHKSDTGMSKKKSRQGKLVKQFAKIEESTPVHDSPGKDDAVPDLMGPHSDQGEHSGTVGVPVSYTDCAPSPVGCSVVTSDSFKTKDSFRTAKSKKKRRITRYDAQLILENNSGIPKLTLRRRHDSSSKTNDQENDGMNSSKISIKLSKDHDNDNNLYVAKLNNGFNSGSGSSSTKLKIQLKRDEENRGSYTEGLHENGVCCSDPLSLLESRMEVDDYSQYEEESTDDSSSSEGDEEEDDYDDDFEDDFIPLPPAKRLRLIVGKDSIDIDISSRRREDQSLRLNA
Histone-lysine N-methyltransferase EZH2 (Homo sapiens), Q15910 [Y641F], sequence (Q15910 whole entry Y641F, looked up): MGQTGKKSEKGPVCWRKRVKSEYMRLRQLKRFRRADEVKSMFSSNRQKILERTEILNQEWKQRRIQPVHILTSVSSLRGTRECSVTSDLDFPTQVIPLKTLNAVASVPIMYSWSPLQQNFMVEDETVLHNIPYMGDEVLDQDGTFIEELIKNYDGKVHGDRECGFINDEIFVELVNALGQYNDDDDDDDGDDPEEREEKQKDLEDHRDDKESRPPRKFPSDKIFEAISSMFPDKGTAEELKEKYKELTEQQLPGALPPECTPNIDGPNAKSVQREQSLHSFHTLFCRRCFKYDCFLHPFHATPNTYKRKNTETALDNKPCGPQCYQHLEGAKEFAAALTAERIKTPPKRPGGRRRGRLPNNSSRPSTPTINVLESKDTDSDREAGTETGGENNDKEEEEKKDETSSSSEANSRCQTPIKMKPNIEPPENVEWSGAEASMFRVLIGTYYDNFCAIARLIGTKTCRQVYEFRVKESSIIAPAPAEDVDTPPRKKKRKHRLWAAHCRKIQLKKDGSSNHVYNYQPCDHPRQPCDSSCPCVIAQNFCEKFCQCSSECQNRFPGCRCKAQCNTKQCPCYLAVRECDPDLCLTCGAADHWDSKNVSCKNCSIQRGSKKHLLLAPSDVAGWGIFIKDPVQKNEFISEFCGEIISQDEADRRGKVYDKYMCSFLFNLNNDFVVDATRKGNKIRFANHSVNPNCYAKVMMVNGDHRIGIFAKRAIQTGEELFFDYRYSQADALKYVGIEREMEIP
Histone-lysine N-methyltransferase SETD2 (Homo sapiens), sequence (Q9BYW2 whole entry): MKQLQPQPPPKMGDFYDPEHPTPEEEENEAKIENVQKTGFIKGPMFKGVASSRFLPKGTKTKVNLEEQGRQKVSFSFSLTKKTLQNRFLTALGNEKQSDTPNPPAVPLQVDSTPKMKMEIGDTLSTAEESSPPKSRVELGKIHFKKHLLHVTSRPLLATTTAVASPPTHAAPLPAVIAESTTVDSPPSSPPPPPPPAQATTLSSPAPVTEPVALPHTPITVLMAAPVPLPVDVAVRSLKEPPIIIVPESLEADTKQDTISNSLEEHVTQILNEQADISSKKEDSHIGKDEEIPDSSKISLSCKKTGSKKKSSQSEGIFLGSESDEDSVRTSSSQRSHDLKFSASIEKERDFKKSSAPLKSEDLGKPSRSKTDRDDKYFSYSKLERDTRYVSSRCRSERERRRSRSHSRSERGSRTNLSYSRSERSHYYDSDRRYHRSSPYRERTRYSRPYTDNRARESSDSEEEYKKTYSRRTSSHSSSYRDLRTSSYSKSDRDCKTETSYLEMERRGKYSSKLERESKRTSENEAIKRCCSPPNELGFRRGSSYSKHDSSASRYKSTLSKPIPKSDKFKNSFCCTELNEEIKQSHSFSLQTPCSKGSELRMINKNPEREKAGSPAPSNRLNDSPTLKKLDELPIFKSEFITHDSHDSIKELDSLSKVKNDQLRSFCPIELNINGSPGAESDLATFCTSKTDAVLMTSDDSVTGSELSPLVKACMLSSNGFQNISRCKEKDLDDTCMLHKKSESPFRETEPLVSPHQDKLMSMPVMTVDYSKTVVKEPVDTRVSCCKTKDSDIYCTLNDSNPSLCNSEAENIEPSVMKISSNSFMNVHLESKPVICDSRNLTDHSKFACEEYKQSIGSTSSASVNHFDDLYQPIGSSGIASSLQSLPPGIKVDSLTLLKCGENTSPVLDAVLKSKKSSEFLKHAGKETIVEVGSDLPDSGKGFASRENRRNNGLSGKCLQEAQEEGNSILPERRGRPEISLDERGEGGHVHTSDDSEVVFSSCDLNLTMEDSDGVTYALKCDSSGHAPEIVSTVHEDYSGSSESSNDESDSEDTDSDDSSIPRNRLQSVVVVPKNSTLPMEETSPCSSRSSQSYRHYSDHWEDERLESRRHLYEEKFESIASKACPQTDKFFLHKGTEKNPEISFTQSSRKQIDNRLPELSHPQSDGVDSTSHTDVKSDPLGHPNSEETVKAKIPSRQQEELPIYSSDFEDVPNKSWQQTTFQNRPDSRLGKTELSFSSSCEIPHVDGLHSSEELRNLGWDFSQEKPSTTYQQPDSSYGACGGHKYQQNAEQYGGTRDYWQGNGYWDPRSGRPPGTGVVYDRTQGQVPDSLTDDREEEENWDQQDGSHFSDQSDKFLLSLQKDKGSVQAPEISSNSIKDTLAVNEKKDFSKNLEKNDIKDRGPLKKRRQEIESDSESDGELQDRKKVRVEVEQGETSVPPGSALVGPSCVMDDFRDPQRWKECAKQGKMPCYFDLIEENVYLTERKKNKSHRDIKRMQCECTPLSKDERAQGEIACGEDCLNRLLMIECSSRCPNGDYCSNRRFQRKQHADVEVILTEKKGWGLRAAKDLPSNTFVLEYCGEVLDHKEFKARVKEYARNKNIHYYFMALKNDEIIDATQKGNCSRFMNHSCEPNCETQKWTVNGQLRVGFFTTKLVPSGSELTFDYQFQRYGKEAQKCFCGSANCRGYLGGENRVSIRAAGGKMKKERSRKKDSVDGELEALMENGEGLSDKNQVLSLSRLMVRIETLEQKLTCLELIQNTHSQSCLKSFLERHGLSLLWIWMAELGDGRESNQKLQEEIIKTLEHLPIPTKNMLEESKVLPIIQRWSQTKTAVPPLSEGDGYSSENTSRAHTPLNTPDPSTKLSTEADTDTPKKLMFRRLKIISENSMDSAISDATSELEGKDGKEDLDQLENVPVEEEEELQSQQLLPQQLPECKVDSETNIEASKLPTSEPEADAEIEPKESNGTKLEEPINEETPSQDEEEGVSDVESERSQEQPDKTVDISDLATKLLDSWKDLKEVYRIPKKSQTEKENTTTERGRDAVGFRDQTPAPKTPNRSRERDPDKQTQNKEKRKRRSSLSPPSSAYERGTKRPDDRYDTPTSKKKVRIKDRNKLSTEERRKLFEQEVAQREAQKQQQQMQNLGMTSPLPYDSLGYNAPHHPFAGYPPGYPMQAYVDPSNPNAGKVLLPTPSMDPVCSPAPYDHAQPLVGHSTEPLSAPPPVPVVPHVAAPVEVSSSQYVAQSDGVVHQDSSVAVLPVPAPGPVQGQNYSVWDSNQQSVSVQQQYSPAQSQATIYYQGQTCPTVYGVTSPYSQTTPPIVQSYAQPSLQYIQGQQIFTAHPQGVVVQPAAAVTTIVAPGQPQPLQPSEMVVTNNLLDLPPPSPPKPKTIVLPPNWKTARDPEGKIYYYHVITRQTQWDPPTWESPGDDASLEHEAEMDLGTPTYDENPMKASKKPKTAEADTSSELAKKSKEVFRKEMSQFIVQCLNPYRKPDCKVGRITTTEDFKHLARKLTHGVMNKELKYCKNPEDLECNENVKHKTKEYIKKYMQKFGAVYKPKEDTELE
N-lysine methyltransferase SMYD2 (Homo sapiens), sequence (Q9NRG4 whole entry): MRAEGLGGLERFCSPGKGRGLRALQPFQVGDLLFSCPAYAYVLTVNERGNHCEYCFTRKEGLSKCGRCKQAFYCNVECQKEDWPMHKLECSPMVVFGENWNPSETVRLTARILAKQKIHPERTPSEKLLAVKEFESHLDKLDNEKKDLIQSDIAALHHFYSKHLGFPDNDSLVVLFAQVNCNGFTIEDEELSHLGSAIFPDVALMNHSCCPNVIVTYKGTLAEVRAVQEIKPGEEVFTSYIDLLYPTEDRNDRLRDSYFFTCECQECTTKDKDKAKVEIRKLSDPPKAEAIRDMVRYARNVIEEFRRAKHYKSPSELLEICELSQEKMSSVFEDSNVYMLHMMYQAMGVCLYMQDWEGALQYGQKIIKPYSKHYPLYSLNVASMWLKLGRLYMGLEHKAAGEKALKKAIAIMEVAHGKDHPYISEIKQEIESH

CCN(C(=O)C1CC1)c1cc(-c2ccc(N3CCN(CC4CC4)CC3)nc2C)cc(C(=O)NCc2c(C)cc(C)[nH]c2=O)c1C showed an inhibition [1] of 0%, an inhibition [2] of 0% and an inhibition [3] of 0%. The inhibition [4] was 99%, the GI50 [5] was 0.14 µM and the GI50 (Daudi) was > 10 µM. The inhibition in vivo at 200 mg/kg (Pfeiffer) was 100%, the inhibition in vivo at 100 mg/kg (KARPAS-422 [6]) was 70.1% and the inhibition in vivo at 200 mg/kg (KARPAS-422 [7]) was 97.3%. It also gave a Cmax [8] of 671 ng/mL, a t1/2 [9] of 5.38 h and a Vz [10] of 20.833 L/kg.

From ChEMBL document CHEMBL4831544, “Discovery of IHMT-EZH2-115 as a Potent and Selective Enhancer of Zeste Homolog 2 (EZH2) Inhibitor for the Treatment of B-Cell Lymphomas” (J Med Chem, 2021)
